Measured values published in US5739162A, “Carbamoylmethylurea derivatives” (Shionogi & Co., Ltd., priority 1994, dated 1998).

Tests used:
[1] = target: T1, gastrin receptor (Cavia porcellus, UniProt H0VZC5); assay: Gastrin receptor antagonism: displacement of 125I-labeled gastrin from gastric glands; format: binding, guinea pig (male Hartley); conditions: guinea pig fundic gastric glands; 125I-gastrin 0.2 nM; 30 min, 25° C.
T1 construct: stomach was extracted from each animal immediately, from which gastric glands were prepared; from tissue; host or cells: gastric (fundic) glands of male Hartley guinea pigs
T1 sequence (H0VZC5 1-426): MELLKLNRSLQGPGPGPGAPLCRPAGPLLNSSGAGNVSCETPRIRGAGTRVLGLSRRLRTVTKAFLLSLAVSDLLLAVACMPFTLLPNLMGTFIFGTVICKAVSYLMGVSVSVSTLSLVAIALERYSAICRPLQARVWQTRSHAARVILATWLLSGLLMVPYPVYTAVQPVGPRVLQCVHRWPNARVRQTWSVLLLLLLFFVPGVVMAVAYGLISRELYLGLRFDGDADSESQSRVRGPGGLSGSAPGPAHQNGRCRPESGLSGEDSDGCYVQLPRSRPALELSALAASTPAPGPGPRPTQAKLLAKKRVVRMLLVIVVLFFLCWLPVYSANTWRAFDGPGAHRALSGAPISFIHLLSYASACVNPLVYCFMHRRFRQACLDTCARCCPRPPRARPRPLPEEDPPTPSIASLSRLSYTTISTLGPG
Procedure: (§1) The pharmacological effect of compounds (I) prepared in Examples above were evaluated in vitro with respect to antagonistic activity against gastrin receptor, CCK-B receptor or CCK-A receptor, using fundic gland cells of guinea pig, crude membrane specimen from mouse cerebral cortex, or crude membrane specimen from mouse pancreas, respectively.
(§2) Male Hartley guinea pig (450-600 g) or male ddY mouse (24-30 g) were used.
(1) Gastrin Receptor Antagonism
Preparation of gastric glands
Male Hadley guinea pigs (450-600 g) were killed by bleeding and stomach was extracted from each animal immediately, from which gastric glands were prepared.
Preparation of test compounds and procedures of displacing assay A 1M solution of a compound to be tested in DMSO is prepared and diluted with 50% DMSO to obtain a ten-fold dilution series.
The reaction is initiated by the addition of gastric glands to solutions of different concentration each containing ^125 I-labeled gastrin (final concentration, 0.2 nM). The mixture is incubated for 30 min at 25° C., centrifuged at 2000 rpm for 5 min and the supernatant is removed by aspiration. To the pellet is added ice-cooled incubation buffer and mixed gently, followed by an immediate centrifugation and removal of the supernatant by aspiration. The radioactivity is counted on gamma counter. The same procedure was repeated using 50% DMSO solution or human gastrin I (final concentration, 2 μM) instead of a solution of test compound so as to obtain the control value regarding total binding or the value regarding non-specific binding, respectively.
(§3) The IC50 was determined by plotting the ratio (%) of specific binding of a test compound to that of control on semilogarithmic graph and obtaining the concentration corresponding to 50%, wherein: specific binding of control=total binding (cpm)--non-specific binding (cpm); and specific binding of test compound=total binding (cpm)--non-specific binding (cpm).

[2] = target: T2, CCK-B receptor (Mus musculus, UniProt P56481); assay: CCK-B receptor antagonism: displacement of [3H]CCK-8 from crude membrane of cerebral cortex; format: binding, mouse (male ddY); conditions: [3H]CCK-8 1 nM, 90 min, 25° C.
T2 construct: crude membrane specimen from mouse cerebral cortex; from tissue; host or cells: cerebral cortex of male ddY mice, crude membranes
T2 sequence (P56481 1-453): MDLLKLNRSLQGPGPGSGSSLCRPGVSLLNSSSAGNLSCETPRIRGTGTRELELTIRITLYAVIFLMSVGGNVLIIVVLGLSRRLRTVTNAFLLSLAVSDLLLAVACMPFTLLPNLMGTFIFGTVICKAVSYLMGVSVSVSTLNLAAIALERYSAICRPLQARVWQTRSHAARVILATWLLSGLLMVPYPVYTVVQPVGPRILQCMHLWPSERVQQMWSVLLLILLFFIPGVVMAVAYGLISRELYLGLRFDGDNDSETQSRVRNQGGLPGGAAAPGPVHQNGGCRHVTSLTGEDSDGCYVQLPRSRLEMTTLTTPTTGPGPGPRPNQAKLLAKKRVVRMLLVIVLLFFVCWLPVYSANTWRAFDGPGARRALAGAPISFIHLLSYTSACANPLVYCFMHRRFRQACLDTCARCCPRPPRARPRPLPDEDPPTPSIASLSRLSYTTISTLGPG
Procedure: as §1, §2
(§4) (2) CCK-A Receptor Antagonism and CCK-B Receptor Antagonism Preparation of CCK receptor preparations Male ddY mice (24 to 30 g) were killed by decapitation and cerebral cortex (CCK-B) and pancreas (CCK-A) were extracted immediately. Each of cerebral cortex and pancreas was mixed with 50 mM Tris-HCl buffer (pH 7.4) and homogenized with a teflon-glass homogenizer and polytron homogenizer to obtain crude membrane specimens.
(§5) Preparation of test compounds and procedures of displacing assay
(§6) A 1M solution of a compound to be tested in DMSO is prepared and diluted with 50% DMSO to obtain a ten-fold dilution series.
(§7) The reaction is initiated by the addition of crude membrane specimen to solutions of different concentration each containing [^3 H]CCk-8 (final concentration, 1 nM). The mixture is incubated for 90 min at 25° C., filtered through glass filter with aspiration and washed with a cooled 50 mM Tris buffer. After the addition of Aquazol-2 cocktail the radioactivity is counted. The same procedure was repeated using 50% DMSO solution or Ceruletide (final concentration, 1 μM) instead of a solution of test compound so as to obtain the control value regarding total binding or the value regarding non-specific binding, respectively.
as §3

[3] = target: T3, CCK-A receptor (Mus musculus, UniProt O08786); assay: CCK-A receptor antagonism: displacement of [3H]CCK-8 from crude membrane of pancreas; format: binding, mouse (male ddY); conditions: [3H]CCK-8 1 nM, 90 min, 25° C.
T3 construct: crude membrane specimen from mouse pancreas; from tissue; host or cells: pancreas of male ddY mice, crude membranes
T3 sequence (O08786 1-436): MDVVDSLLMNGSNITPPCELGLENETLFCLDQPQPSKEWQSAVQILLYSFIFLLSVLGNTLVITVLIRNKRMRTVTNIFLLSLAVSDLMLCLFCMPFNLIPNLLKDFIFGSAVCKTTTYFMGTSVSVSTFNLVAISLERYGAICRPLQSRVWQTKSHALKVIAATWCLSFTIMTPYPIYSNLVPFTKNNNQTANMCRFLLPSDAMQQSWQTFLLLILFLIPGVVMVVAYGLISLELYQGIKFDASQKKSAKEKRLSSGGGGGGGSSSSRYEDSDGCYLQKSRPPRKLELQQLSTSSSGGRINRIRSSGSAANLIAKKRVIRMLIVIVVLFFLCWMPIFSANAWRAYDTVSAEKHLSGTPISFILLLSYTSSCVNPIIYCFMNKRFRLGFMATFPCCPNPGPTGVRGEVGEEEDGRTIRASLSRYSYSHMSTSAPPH
Procedure: as §1, §2, §4, §5, §6, §7, §3

[4] = tested on: gastric acid secretion; assay: Inhibitory effect on pentagastrin-stimulated gastric acid secretion in anesthetized rat (perfused stomach, Schild method); format: in vivo, rat (Sprague Dawley); conditions: intraduodenal (i.d.), 0.5% M.C. suspension
Excerpt: Anti-acid secreting function of carbamoylmethylurea derivative (I) of the present invention has been confirmed by the in vivo experiment (cf. Schild Method; Experiment 1 below). […] From the results of these experiments, it is apparent that the carbamoylmethylurea derivative (I) has an anti-acid secreting function, and is an excellent gastrin receptor antagonist and/or CCK-B receptor antagonist which has enough functional separativeness from CCK-A receptor.
Experiment 1 In Vivo Test
Evaluation of Inhibitory Effect on Gastric Acid Secretion by Child Method
Twenty four hour starved (ad libitum for water) male Sprague Daily rats (8-week-old) were anesthetized with urethane (1.5 g/kg S.C.) and kept breathing with esophagus cannulas. After laparotomy, esophagus cannulas were inserted orally up to proventriculus and ligated around gastric cardiac. Perfusion cannulas were inserted from duodenum into stomach and ligated around pylorus. Another cannulas were placed into duodenum and ligated for administration of drug. After sutra of abdomen, stomach was perfused via the esophagus cannulas with physiological saline (37° C.) while collecting perfusate for a 15 min interval. The perfusate was subjected to titration with 0.001N NaOH solution to determine the acidity. When the basal acid secretion became stable, pentagastrin ([…])was administered in a sustained manner via common carotid vein for about 90 min until the acid secretion reached approximately the highest level, when a test compound (0.5% M.C. suspension) was administered into duodenum through cannulas. The perfusate was collected for a 15 min interval to monitor the acid secretion for 90 min. The percent inhibition was calculated as follows:
Percent inhibition (%)=100×(A-B)/(C-B)
A: the minimum value of total acidity observed after the administration of a test compound;
B: the total acidity obtained immediately before the administration of pentagastrin; and
C: the total acidity obtained immediately before the administration of a test compound.

SMILES | IC50 [1] [nM] | IC50 [2] [nM] | IC50 [3] [nM] | ED50 [4] [mg/kg] | ED50 ([4]; Rattus norvegicus) [mg/kg]
Cc1cccc(NC(=O)N[C@@H]2N=C(c3ccccc3)c3ccccc3N(CC(=O)c3ccccc3C)C2=O)c1 [YM-022, reference compound] | 2 | 2 | 100 | 0.107 | 
CC(C)(C)OC(=O)CN(C(=O)CNC(=O)Nc1cccc(C(F)(F)F)c1)c1ccccc1C(=O)C1CCCCC1 [Compound 15b, Cyclohexyl-(2-(N-(t-butoxycarbonylmethyl)-N-(N'-(m-trifluoromethylphenyl)ureidomethylcarbonyl)amino)phenyl)ketone] | 5 | 6 | 1150 |  | 0.026
